Results on 45 molecules are retold here after PMC4657098, “A Review of the Updated Pharmacophore for the Alpha 5 GABA(A) Benzodiazepine Receptor Model” (International Journal of Medicinal Chemistry, 2015).

Holding throughout (set-up): expressed in transfected cells
Assay [1] concerns the target α2β3γ2 GABAA/BzR (Homo sapiens, UniProt P18507+P47869). Description: Competition binding to HEK cell membranes, α2β3γ2. The following applies: read-out: Ki α2.
Assay [2] concerns the target α3β3γ2 GABAA/BzR (Homo sapiens, UniProt P18507+P34903). Description: Competition binding to HEK cell membranes, α3β3γ2. The following applies: read-out: Ki α3.
Assay [3] addresses α1β3γ2 GABAA/BzR (Homo sapiens, UniProt P14867+P18507). Briefly: Competition binding to HEK cell membranes, α1β3γ2.
The target in assay [4] is α5β3γ2 GABAA/BzR (Homo sapiens, UniProt P18507+P31644). Briefly: Competition binding to HEK cell membranes, α5β3γ2. To be noted: read-out: Ki α5.
In assay [5] the target is α6β3γ2 GABAA/BzR (Homo sapiens, UniProt P18507+Q16445). Briefly: Competition binding to HEK cell membranes, α6β3γ2.

Where two headings read alike, the source gives them in different places.

The Ki is the dissociation constant of the complex between target and ligand, obtained from inhibition or displacement.

Regarding `COCc1ncn2c1CN(C)C(=O)c1cc(Cl)ccc1-2` [SH-TSC-1], the Ki was 180 nM in assay [1], 328 nM in assay [2], 362 nM in assay [3] (read-out: Ki α1) and 6.18 nM in assay [4].

As to `C[Si](C)(C)C#Cc1ccc2c(c1)C(c1ccccc1F)=NCC(=O)N2` [JYI-55], the values for the Ki in assay [2], in assay [3] (read-out: Ki α1) and in assay [4] were 0.504 nM, 41.4 nM and 24.8 nM, respectively.

With `CCOC(=O)c1ncc2[nH]c3ccc(OCc4cccc5ccccc45)cc3c2c1COC` [EDC-II-044], the Ki turned out to be 293 nM in assay [2], 1000 nM in assay [5] (read-out: Ki α6), 15.4 nM in assay [3] (read-out: Ki α1) and 323 nM in assay [4].

In the case of `O=C(OCC(F)(F)F)c1ncn2c1[C@@H]1CCCN1C(=O)c1ccccc1-2` [JYI-14], the Ki in assay [1] came out at 25 nM; in assay [5] (read-out: Ki α6), 565 nM; in assay [3] (read-out: Ki α1), 32 nM; in assay [4], 13 nM.

On to `O=C(O)c1ncn2c1CN=C(c1ccccc1)c1cc(Br)ccc1-2` [DM-III-01], for which the Ki in assay [1] was determined as 12 nM; in assay [4], 4.73 nM.

As for `C#Cc1ccc2c(c1)C(c1ccccc1)=NCC(NC)=N2` [Hz148], the Ki in assay [1] was 5000 nM; in assay [5] (read-out: Ki α6), 5000 nM; in assay [3] (read-out: Ki α1) it was 11 nM; in assay [4] it was 256 nM.

Take `CN1Cc2c(C(=O)OC(C)(C)C)ncn2-c2ccc(O)cc2C1=O` [DM-239]: the Ki in assay [2] was 0.53 nM; in assay [5] (read-out: Ki α6), 6.89 nM; in assay [3] (read-out: Ki α1), 1.5 nM; in assay [4] it was 0.14 nM.

`C#Cc1ccc2[nH]c3cnc(C(=O)OC(C)(C)C)cc3c2c1` [WY-TSC-4]: the Ki in assay [2] was determined as 1.63 nM; in assay [4], 51 nM.

Turning to `C=Cc1ccc2c(c1)C(=O)N1CCC[C@H]1c1c(C(=O)OC(C)(C)C)ncn1-2` [JYI-04], the Ki came out at 16 nM in assay [1], 1.57 nM in assay [5] (read-out: Ki α6), 28.3 nM in assay [3] (read-out: Ki α1) and 0.51 nM in assay [4].

As for `CN(C)C=C1N=C2CN=C(c3ccccc3)c3cc(Br)ccc3N2C1=O` [PS-1-34B], the Ki in assay [1] was 4.2 nM; in assay [2], 3.93 nM.

For the molecule `CC(C)(C)OC(=O)c1ncn2c1[C@@H]1CCCN1C(=O)c1cc(-c3cccs3)ccc1-2` [JYI-19], the Ki was determined as 205 nM in assay [1], 12.7 nM in assay [5] (read-out: Ki α6), 2.18 nM in assay [3] (read-out: Ki α1) and 34 nM in assay [4].

Consider `C[Si](C)(C)C#Cc1ccc2c(c1)C(=O)N1CCC[C@H]1c1c(C(=O)OCC(F)(F)F)ncn1-2` [JYI-11], for which the Ki is 5000 nM in assay [1], 3.97 nM in assay [5] (read-out: Ki α6), 5000 nM in assay [3] (read-out: Ki α1) and 648 nM in assay [4].

Consider `C#Cc1ccc2c(c1)C(c1cccs1)=NCC(=O)N2C` [JC222], for which the inhibition constant Ki in assay [1] is 45.1 nM; in assay [3] (read-out: Ki α1), 86.7 nM; in assay [4], 17.6 nM.

Consider `CN1Cc2c(C(=O)OC(C)(C)C)ncn2-c2ccc(N3CCCC3)cc2C1=O` [DM-139], for which the Ki in assay [2] is 169 nM; in assay [5] (read-out: Ki α6), 325 nM; in assay [3] (read-out: Ki α1), 5.8 nM; in assay [4], 9.25 nM.

Turning to `O=C(O)c1ncn2c1CN=C(c1ccccc1F)c1cc(Br)ccc1-2` [JYI-47], the inhibitory constant (Ki) in assay [1] is 2.28 nM; in assay [2], 0.511 nM; in assay [3] (read-out: Ki α1), 2.76 nM; in assay [4], 0.427 nM.

With `O=C1CN=C(c2cccs2)c2cc(Br)ccc2N1` [JC184], the Ki worked out at 10.5 nM in assay [1], 9.61 nM in assay [3] (read-out: Ki α1) and 6.71 nM in assay [4].

On to `CC(C)(C)OC(=O)c1ncn2c1C1CCCN1C(=O)c1cc(Br)ccc1-2` (stereo not shown) [JYI-01], for which the Ki in assay [2] came out at 96 nM; in assay [5] (read-out: Ki α6) it was 2.88 nM; in assay [3] (read-out: Ki α1), 59.2 nM; in assay [4] it was 10.6 nM.

As to `COc1ccc2c(c1)C(=O)N(C)Cc1c(C(=O)OC(C)(C)C)ncn1-2` [DM-215], the Ki stood at 7.42 nM in assay [2], 8.28 nM in assay [5] (read-out: Ki α6), 6.74 nM in assay [3] (read-out: Ki α1) and 0.293 nM in assay [4].

With `O=C(OCC(F)(F)F)c1ncn2c1C1CCCN1C(=O)c1cc(Br)ccc1-2` (stereo not shown) [JYI-10], the Ki in assay [1] was 368 nM; in assay [5] (read-out: Ki α6), 23 nM; in assay [3] (read-out: Ki α1) it was 5000 nM; in assay [4] it was 12.3 nM.

Turning to `O=C1C2C=Nc3ccccc3C2=NN1c1ccc(Cl)cc1` (stereo not shown) [CGS9896, reference compound], the Ki worked out at 181 nM in assay [5] (Ki α6) and 0.28 nM in assay [3] (Ki α1).

As for `CCOc1cc2c(cn1)[nH]c1ccccc12` [3 EBC, 3-Ethoxy-beta-carboline], the Ki in assay [2] was determined as 28.2 nM; in assay [5] (Ki α6), 1000 nM; in assay [4] it was 826 nM.

As to `CN1CCN(C=C2N=C3CN=C(c4ccccc4)c4cc(Br)ccc4N3C2=O)CC1` [PS-1-35], the inhibition constant (Ki) came out at 16 nM in assay [1] and 24.4 nM in assay [2].

For `S=C=Nc1ccc2[nH]c3cnc(N=C=S)cc3c2c1` [EDC-I-093], the Ki in assay [1] amounted to 423 nM; in assay [5] (read-out: Ki α6), 5000 nM; in assay [3] (read-out: Ki α1) it was 13.6 nM; in assay [4] it was 2910 nM.

In the case of `CCOC(=O)c1ncn2c1CN=C(c1ccccc1F)c1cc(-c3ccco3)ccc1-2` [JYI-48], the Ki in assay [1] came out at 90.7 nM; in assay [2], 12.8 nM; in assay [3] (read-out: Ki α1) it was 75.6 nM; in assay [4], 31.3 nM.

`Cc1nnc2n1-c1ccc(Br)cc1C(c1ccccc1)=NC2` [XLi268]: the values for the Ki in assay [1], in assay [3] (read-out: Ki α1) and in assay [4] were 0.686 nM, 2.81 nM and 0.624 nM, respectively.

With `C#Cc1ccc2c(c1)C(=O)N1CCCC1c1c(C(=O)OC(C)(C)C)ncn1-2` (stereo not shown) [JYI-03], the Ki in assay [1] worked out at 107 nM; in assay [5] (read-out: Ki α6), 3.34 nM; in assay [3] (read-out: Ki α1) it was 185 nM; in assay [4], 0.954 nM.

Regarding `O=[N+]([O-])c1ccc2[nH]c3cnc([N+](=O)[O-])cc3c2c1` [EDC-I-071], the Ki was determined as 83.1 nM in assay [1], 5000 nM in assay [5] (read-out: Ki α6), 12.9 nM in assay [3] (read-out: Ki α1) and 314 nM in assay [4].

On to `COc1ccc(-n2nc3c4ccccc4[nH]cc-3c2=O)cc1` [CGS9895, reference compound], for which the Ki in assay [5] (read-out: Ki α6) worked out at 9.3 nM; in assay [3] (read-out: Ki α1), 0.21 nM.

`C#Cc1ccc2c(c1)C(c1cccs1)=NCC(=O)N2` [JC208]: the Ki worked out at 18.9 nM in assay [1], 22.4 nM in assay [3] (read-out: Ki α1) and 5.04 nM in assay [4].

With `Cc1nnc2n1-c1ccc(C#C[Si](C)(C)C)cc1C(c1ccccc1F)=NC2` [JYI-72], the values for the Ki in assay [1], in assay [3] (read-out: Ki α1) and in assay [4] were 18.5 nM, 48.5 nM and 11.5 nM, respectively.

For the molecule `C#Cc1ccc2c(c1)C(=O)N1CCC[C@H]1c1c(C(=O)OCC(F)(F)F)ncn1-2` [JYI-15], the Ki worked out at 812 nM in assay [1], 22 nM in assay [5] (read-out: Ki α6), 205 nM in assay [3] (read-out: Ki α1) and 4.8 nM in assay [4].

On to `C#Cc1ccc2c(c1)C(c1ccccc1Cl)=NCC(=O)N2C` [XLi352], for which the figures for the Ki in assay [1], in assay [3] (read-out: Ki α1) and in assay [4] were 0.991 nM, 1.56 nM and 1.96 nM, respectively.

As for `C#Cc1ccc2c(c1)C(c1ccccc1F)=NCc1nnc(C)n1-2` [JYI-70], the Ki in assay [1] was 2.1 nM; in assay [5] (read-out: Ki α6), 5000 nM; in assay [3] (read-out: Ki α1) it was 6.3 nM; in assay [4], 0.56 nM.

On to `C#Cc1ccc2c(c1)C(c1ccccc1F)=NCC(=O)N2` [JYI-60 (C17H11N2OF)], for which the results for the Ki in assay [2], in assay [5] (read-out: Ki α6) and in assay [4] were 4.3 nM, 5000 nM and 1.7 nM, respectively.

Turning to `O=C(OCC(F)(F)F)c1ncn2c1C1CCCN1C(=O)c1cc(-c3ccco3)ccc1-2` (stereo not shown) [JYI-13], the inhibitory constant (Ki) was determined as 63.7 nM in assay [1], 8.38 nM in assay [5] (read-out: Ki α6), 5000 nM in assay [3] (read-out: Ki α1) and 16 nM in assay [4].

In the case of `C#Cc1ccc2c(c1)C(c1ccccc1F)=NCc1c(C(=O)OCC(F)(F)F)ncn1-2` [JYI-59 (C22H13N3O2F4)], the Ki was 2.6 nM in assay [1] and 5000 nM in assay [5] (read-out: Ki α6).

Regarding `CCOC(=O)c1ncn2c1CN=C(c1ccccc1F)c1cc(Br)ccc1-2` [JYI-32], the Ki in assay [1] came out at 4.96 nM; in assay [5] (read-out: Ki α6), 52.2 nM; in assay [3] (read-out: Ki α1), 3.07 nM; in assay [4] it was 2.92 nM.

Regarding `C#Cc1ccc2c(c1)C(c1ccccc1F)=NCc1c(C(=O)NC)ncn1-2` [HJ-I-037], the Ki was found to be 8.13 nM in assay [1], 28.3 nM in assay [2], 15.1 nM in assay [3] (read-out: Ki α1) and 0.818 nM in assay [4].

Regarding `Cc1nnc2n1-c1ccc(Br)cc1C(c1ccccc1F)=NC2` [JYI-57], the Ki in assay [1] was determined as 0.076 nM; in assay [2], 0.131 nM; in assay [3] (read-out: Ki α1), 0.076 nM; in assay [4] it was 0.036 nM.

Turning to `CC(C)(C)OC(=O)c1cc2c(cn1)[nH]c1ccccc12` [SH-TSC-2], the Ki in assay [1] was 0.0419 nM; in assay [2], 0.035 nM; in assay [4], 69.3 nM.

For `C#Cc1ccc2c(c1)C(c1ccccc1F)=N[C@@H](C)c1c(C(=O)OCC)ncn1-2` [SH-O53-S-CH3-2′F], the affinity in assay [5] (Ki α6) corresponds to a Ki of 5000 nM.

With `O=C1CN=C(c2ccccc2F)c2cc(Br)ccc2N1` [JYI-42], the Ki in assay [1] turned out to be 0.146 nM; in assay [2], 0.278 nM; in assay [3] (read-out: Ki α1), 0.257 nM; in assay [4], 0.256 nM.

Regarding `O=C(OCC(F)(F)F)c1ncn2c1CN=C(c1ccccc1F)c1cc(Br)ccc1-2` [JYI-49], the Ki in assay [1] is 2.38 nM; in assay [5] (read-out: Ki α6), 3390 nM; in assay [3] (read-out: Ki α1), 1.87 nM; in assay [4], 6.7 nM.

Consider `O=C1CN=C(c2ccccc2Cl)c2cc(Br)ccc2N1` [DM-II-72], for which the Ki in assay [1] worked out at 1.37 nM; in assay [4], 2.02 nM.

`C=Cc1ccc2c(c1)C(=O)N1CCC[C@H]1c1c(C(=O)OCC(F)(F)F)ncn1-2` [JYI-12]: the Ki in assay [1] came to 39 nM; in assay [5] (read-out: Ki α6) it was 6.8 nM; in assay [3] (read-out: Ki α1) it was 91 nM; in assay [4], 4.5 nM.
